This is an account of results in DBAASP.

Among the test systems are Pseudomonas aeruginosa; Micrococcus luteus; Escherichia coli; Candida albicans; Bacillus subtilis; Serratia marcescens; Proteus mirabilis; Shigella dysenteriae; Klebsiella pneumoniae; Salmonella typhimurium.
Holding throughout (assay): ≥ marks a high value that may be exact or a test limit, other limits are often not marked, values filed in µg/mL are converted to µM
Experiment [1] deals with Acinetobacter baumannii NM8.
Experiment [2] relates to Escherichia coli ATCC 25922.
In experiment [3] the test system is Candida albicans ATCC 90028.
Experiment [4] concerns Pseudomonas aeruginosa ATCC 27853.
Experiment [5] relates to Stenotrophomonas maltophilia B32/4.
Experiment [6] deals with Staphylococcus epidermidis RP62A.
For experiment [7], the system named is Escherichia coli ATCC 25726.
Experiment [8] deals with Staphylococcus epidermidis RP62A/1.
The test system of experiment [9] is Staphylococcus aureus ATCC 25923.
The subject of experiment [10] is Klebsiella pneumoniae ATCC 700603.
For experiment [11], the system named is Candida albicans ATCC 20032.
The subject of experiment [12] is Bacillus subtilis ATCC 6633.
Experiment [13] deals with Candida albicans NCPF 1467.
Experiment [14] deals with Staphylococcus aureus NCTC 10788.
The test system of experiment [15] is Escherichia coli NCTC 10418.

Each structure is given as a SMILES string. In brackets after ≈: the same amount, converted by molar mass. Some results are limits rather than exact numbers.

Turning to `CC[C@H](C)[C@H](N)C(=O)N[C@@H](CC(C)C)C(=O)NCC(=O)N[C@@H](CCCCN)C(=O)N[C@@H](CC(C)C)C(=O)N[C@@H](CC(C)C)C(=O)N[C@@H](CO)C(=O)N[C@H](C(=O)N[C@@H](C)C(=O)N[C@@H](C)C(=O)NCC(=O)N[C@@H](CC(C)C)C(=O)N[C@@H](CC(C)C)C(=O)N[C@@H](CO)C(=O)N[C@@H](CC(N)=O)C(=O)N[C@@H](CC(C)C)C(N)=O)[C@@H](C)O` [ILGKLLSTAAGLLSNL], the MIC in experiment [1] is at least 64 µM; in [2], 150 µM (≈ 237 µg/mL); in [3], at least 64 µM; in experiment [4], 256 µM (≈ 405 µg/mL); in experiment [5] it was at least 128 µM; in [6] it was at least 64 µM. The MIC in experiment [7] is at least 256 µM; in [8], at least 32 µM; in experiment [9], 50 µM (≈ 79.1 µg/mL); in experiment [10] it was 256 µM (≈ 405 µg/mL).

`CC[C@H](C)[C@H](N)C(=O)N[C@@H](CC(C)C)C(=O)NCC(=O)N1CCC[C@H]1C(=O)N[C@H](C(=O)N[C@@H](CC(C)C)C(=O)NCC(=O)N[C@@H](CC(C)C)C(=O)N[C@H](C(=O)NCC(=O)N[C@@H](CO)C(=O)N[C@@H](C)C(=O)N[C@@H](CC(C)C)C(=O)NCC(=O)NCC(=O)N[C@@H](CC(C)C)C(=O)N[C@H](C(N)=O)[C@@H](C)CC)C(C)C)C(C)C` [ILGPVLGLVGSALGGLI]: the MIC in experiment [2] is above 64.6 µM; in [11] it was at least 64.6 µM; in experiment [12], at least 64.6 µM; in experiment [9], above 64.6 µM.

On to `CC[C@H](C)[C@H](N)C(=O)N[C@H](C(=O)NCC(=O)N[C@@H](C)C(=O)N[C@H](C(=O)N[C@@H](C)C(=O)N[C@@H](C)C(=O)N[C@@H](C)C(=O)N[C@@H](CC(C)C)C(=O)N1CCC[C@H]1C(=O)N[C@@H](Cc1cnc[nH]1)C(=O)N[C@H](C(=O)N[C@H](C(=O)N[C@@H](CC(N)=O)C(=O)N[C@@H](C)C(=O)N[C@H](C(=O)N[C@@H](CCCCN)C(=O)N[C@@H](CC(N)=O)C(=O)N[C@H](C(=O)N[C@@H](Cc1ccccc1)C(=O)O)[C@@H](C)O)[C@@H](C)CC)[C@@H](C)CC)C(C)C)[C@@H](C)CC)[C@@H](C)CC` [IIGAIAAALPHVINAIKNTF], for which the MIC in experiment [13] is at least 120 µM; in experiment [14] it was 16 µM (≈ 32.8 µg/mL).

For the compound `CC[C@H](C)[C@H](N)C(=O)N[C@@H](CC(C)C)C(=O)NCC(=O)N[C@@H](CCCCN)C(=O)N[C@@H](CC(C)C)C(=O)N[C@@H](CC(C)C)C(=O)N[C@@H](CO)C(=O)N[C@H](C(=O)N[C@@H](C)C(=O)N[C@@H](C)C(=O)NCC(=O)N[C@@H](CC(C)C)C(=O)N[C@@H](CC(C)C)C(=O)N[C@@H](CCCCN)C(=O)N[C@@H](CC(N)=O)C(=O)N[C@@H](CC(C)C)C(N)=O)[C@@H](C)O` [ILGKLLSTAAGLLKNL], the MIC is at least 32 µM in experiment [1]; at least 32 µM in experiment [3]; 128 µM (≈ 208 µg/mL) in [4]; at least 64 µM in [5]; 16 µM (≈ 26 µg/mL) in experiment [6]; at least 32 µM in experiment [7]. The values for the minimum inhibitory concentration (MIC) in [8], in experiment [9] and in [10] were 8 µM (≈ 13 µg/mL), 16 µM (≈ 26 µg/mL) and 128 µM (≈ 208 µg/mL), respectively.

On to `CC[C@H](C)[C@H](N)C(=O)N[C@@H](CC(C)C)C(=O)NCC(=O)N1CCC[C@H]1C(=O)N[C@H](C(=O)N[C@@H](CC(C)C)C(=O)NCC(=O)N[C@@H](CC(C)C)C(=O)N[C@H](C(=O)NCC(=O)N[C@@H](CC(N)=O)C(=O)N[C@@H](C)C(=O)N[C@@H](CC(C)C)C(=O)NCC(=O)NCC(=O)N[C@@H](CC(C)C)C(=O)N[C@H](C(=O)N[C@@H](CCCCN)C(=O)N[C@@H](CCCCN)C(=O)N[C@@H](CC(C)C)C(N)=O)[C@@H](C)CC)C(C)C)C(C)C` [ILGPVLGLVGNALGGLIKKL], for which the MIC in [2] was above 51.4 µM; in experiment [11], 4.83 µM (≈ 9.4 µg/mL); in experiment [12], 9.66 µM (≈ 18.8 µg/mL); in experiment [9], 4.83 µM (≈ 9.4 µg/mL).

In the case of `CC[C@H](C)[C@H](NC(=O)CN)C(=O)NCC(=O)N[C@H](C(=O)N[C@@H](CCCCN)C(=O)N[C@@H](Cc1ccccc1)C(=O)N[C@@H](CC(C)C)C(=O)NCC(=O)NCC(=O)N[C@H](C(=O)N[C@@H](CCCCN)C(=O)N[C@H](C(=O)N[C@@H](C)C(=O)N[C@@H](CC(C)C)C(=O)N[C@@H](CCCCN)C(=O)NCC(=O)N[C@@H](C)C(=O)N[C@@H](CC(C)C)C(=O)N[C@@H](CCCCN)C(=O)N[C@@H](CCC(=O)O)C(=O)N[C@@H](CC(C)C)C(=O)N[C@@H](C)C(=O)N[C@@H](Cc1ccccc1)C(=O)N[C@H](C(=O)N[C@@H](Cc1ccc(O)cc1)C(=O)N[C@H](C(=O)N[C@@H](CC(N)=O)C(N)=O)C(C)C)[C@@H](C)O)[C@@H](C)O)C(C)C)[C@@H](C)O` [GIGTKFLGGVKTALKGALKELAFTYVN], the MIC in experiment [2] was 13.4 µM (≈ 37.5 µg/mL); in experiment [11], at least 35.7 µM; in experiment [12] it was at least 35.7 µM; in experiment [9], 6.72 µM (≈ 18.8 µg/mL).

With `CC[C@H](C)[C@H](NC(=O)[C@H](CO)NC(=O)[C@H](CC(N)=O)NC(=O)[C@@H](NC(=O)[C@H](Cc1ccccc1)NC(=O)[C@H](C)NC(=O)[C@H](CO)NC(=O)[C@H](C)NC(=O)[C@H](Cc1ccccc1)NC(=O)[C@H](CC(C)C)NC(=O)[C@H](CCCCN)NC(=O)[C@H](C)NC(=O)CNC(=O)[C@H](CC(C)C)NC(=O)[C@H](CCCCN)NC(=O)[C@H](CC(C)C)NC(=O)[C@H](CCCCN)NC(=O)[C@H](CC(C)C)NC(=O)[C@H](CC(C)C)NC(=O)[C@H](Cc1ccccc1)NC(=O)CN)C(C)C)C(=O)N[C@@H](CCCCN)C(N)=O` [GFLLKLKLGAKLFASAFVNSIK], the values for the MIC in experiment [15], in experiment [13] and in experiment [14] were 13.5 µM (≈ 32 µg/mL), 6.76 µM (≈ 16 µg/mL) and 6.76 µM (≈ 16 µg/mL), respectively.

`CC[C@H](C)[C@H](NC(=O)CN)C(=O)N[C@@H](Cc1ccccc1)C(=O)N[C@@H](CO)C(=O)N[C@@H](CCCCN)C(=O)N[C@@H](CC(C)C)C(=O)N[C@@H](C)C(=O)NCC(=O)N[C@@H](CCCCN)C(=O)N[C@@H](CCCCN)C(=O)N[C@H](C(=O)N[C@@H](CCCCN)C(=O)N[C@@H](CC(N)=O)C(=O)N[C@@H](CC(C)C)C(=O)N[C@@H](CC(C)C)C(=O)N[C@H](C(=O)N[C@@H](CO)C(=O)NCC(=O)N[C@@H](CC(C)C)C(=O)N[C@@H](CCCCN)C(=O)N[C@@H](CC(N)=O)C(=O)N[C@H](C(=O)NCC(=O)N[C@@H](CCCCN)C(=O)N[C@@H](CCC(=O)O)C(=O)N[C@H](C(=O)NCC(=O)N[C@@H](CCSC)C(=O)N[C@@H](CC(=O)O)C(=O)N[C@H](C(=O)N[C@H](C(=O)N[C@@H](CCCN=C(N)N)C(=O)N[C@H](C(=O)NCC(=O)N[C@H](C(=O)N[C@@H](CC(=O)O)C(=O)N[C@H](C(=O)N[C@@H](C)C(=O)NCC(=O)N[C@H]1CSSC[C@@H](C(=O)O)NC(=O)[C@H](CCC(=O)O)NC(=O)CNC(=O)[C@H](CCCCN)NC(=O)[C@H]([C@@H](C)CC)NC(=O)[C@H](CCCCN)NC1=O)[C@@H](C)CC)[C@@H](C)CC)[C@@H](C)O)C(C)C)C(C)C)C(C)C)[C@@H](C)CC)[C@@H](C)CC)[C@@H](C)CC` [GIFSKLAGKKIKNLLISGLKNIGKEVGMDVVRTGIDIAGCKIKGEC]: the MIC was 5.19 µM (≈ 25 µg/mL) against Pseudomonas aeruginosa; 1.31 µM (≈ 6.3 µg/mL) with Micrococcus luteus; 5.19 µM (≈ 25 µg/mL) against Escherichia coli; 41.5 µM (≈ 200 µg/mL) in the experiment with Candida albicans; 1.31 µM (≈ 6.3 µg/mL) in the experiment with Bacillus subtilis; at least 41.5 µM against Serratia marcescens. Moreover, the MIC is at least 41.5 µM with Proteus mirabilis, 2.6 µM (≈ 12.5 µg/mL) in the experiment on Shigella dysenteriae, 2.6 µM (≈ 12.5 µg/mL) against Klebsiella pneumoniae and 5.19 µM (≈ 25 µg/mL) against Salmonella typhimurium.

The MIC is the lowest concentration found to suppress growth. The low end stands for greater potency, the high end for weaker potency.
